Values quoted from earlier work as cited in patent publication US20260374742A1, “METHODS OF PREPARING CARBAMATE DERIVATIVES” (NodThera Limited, priority 2022, published 2026).

Tested on: NLRP3 inflammasome
Settings: for inhibition of NLRP3 activation (in words): literature report

Compound | inhibition of NLRP3 activation (in words) | concentrations at which NLRP3 activation is inhibited (in words) (literature, concentrations unlikely attainable in vivo)
O=[N+]([O-])C=Cc1ccc2c(c1)OCO2 [3,4-methylenedioxy-β-nitrostyrene] | impair NLRP3 activation | 
NC[C@@H]1O[C@H](c2ccccc2)Cc2c1ccc(O)c2O [A-68930] | impair NLRP3 activation | 
Cc1ccc(S(=O)(=O)/C=C/C#N)cc1 [Bay 11-7082] | impair NLRP3 activation | 
CC(C)(O)c1coc(S(=O)(=O)NC(=O)Nc2c3c(cc4c2CCC4)CCC3)c1 [CP-456,773] | specific inhibitor of NLRP3 activation | 
COc1ccc(Cl)cc1C(=O)NCCc1ccc(S(=O)(=O)NC(=O)NC2CCCCC2)cc1 [Glyburide] | specific inhibitor of NLRP3 activation | micromolar concentrations
OC[C@H]1O[C@@H](c2ccc(Cl)c(Cc3ccc(O[C@H]4CCOC4)cc3)c2)[C@H](O)[C@@H](O)[C@@H]1O [epigliflozin] | impair NLRP3 activation | 
CNCCC(Oc1ccc(C(F)(F)F)cc1)c1ccccc1 (stereo not shown) [fluoxetine] | impair NLRP3 activation | 
OC(CNCC(O)C1CCc2cc(F)ccc2O1)C1CCc2cc(F)ccc2O1 (stereo not shown) [nebivolol] | impair NLRP3 activation | 
C=C1C(=O)O[C@H]2[C@H]1CC/C(C)=C/CC[C@@]1(C)O[C@@H]21 [parthenolide] | impair NLRP3 activation | 
O=c1c(O)c(-c2ccc(O)c(O)c2)oc2cc(O)cc(O)c12 [quercetin] | suppress NLRP3 activation | 
C[S+]([O-])CCCCN=C=S (stereo not shown) [sulforaphane] | suppress NLRP3 activation | 
salvianolic acid | suppress NLRP3 activation | 
